Assay results: patent US11179450B2, “Long chain antigen containing interepitope sequence that promotes antigen presentation to T cells” (MIE UNIVERSITY, priority 2013, dated 2021)

Legend:
[1] = tested on: CD8+ T cells specific to MA p265, NY p81 and mERK2 9m; test: Specific CD8+ T cell induction by CHP/long chain peptide vaccines in mice, intracellular cytokine staining of spleen cells; format: in vivo, BALB/c mice
Description: Long chain peptide antigens MEN, all containing three types of mouse CD8+ T cell epitope sequences (MA p265 (Sequence No. 27), NY p81 (Sequence No. 29), and mERK2 9m (Sequence No. 28)), were synthesized. The interepitope sequences between the respective epitopes were respectively six consecutive tyrosines (Y6) (Sequence No. 1), six consecutive glycines (G6) (Sequence No. 2), six consecutive prolines (P6) (Sequence No. 3), or six consecutive threonines (T6) (Sequence No. 4). Each long chain peptide antigen was complexed with cholesterol-modified pullulan (CHP), which is a type of delivery system, and administered as a vaccine to a mouse. In the process of administration, CpG oligo DNA was coadministered as an adjuvant. Spleen cells were collected one week after the final administration and the frequencies of CD8+ T cells specific to the respective epitope sequences were measured by an intracellular cytokine staining method.
Long chain peptide antigens NME, all containing three types of mouse CD8+ T cell epitope sequences (MA p265 (Sequence No. 27), NY p81 (Sequence No. 29), and mERK2 9m (Sequence No. 28)), were synthesized. The antigens differ from the MEN sequences shown in FIG. 1 in the order of the three types of epitopes. The interepitope sequences between the respective epitopes were respectively six consecutive tyrosines (Y6) (Sequence No. 5), six consecutive glycines (G6) (Sequence No. 6), or six consecutive prolines (P6) (Sequence No. 7). Vaccines containing the respective long chain peptide antigens were administered to mice in the same manner as in FIG. 1 and the frequencies of CD8+ T cells specific to the respective epitope sequences were measured by the intracellular cytokine staining method.
Long chain peptide antigens MEN, ENM, and NME, all containing three types of mouse CD8+ T cell epitope sequences (MA p265 (Sequence No. 27), NY p81 (Sequence No. 29), and mERK2 9m (Sequence No. 28)), were synthesized. MEN, ENM, and […] in the order of the three types of epitopes. The interepitope sequences between the respective epitopes were each six consecutive tyrosines (Y6) (Sequence Nos. 1, 5 and 8). Vaccines containing the respective long chain peptide antigens were administered to mice in the same manner as in FIG. 1 and the frequencies of CD8+ T cells specific to the respective epitope sequences were measured by the intracellular cytokine staining method.
Each long chain peptide was dissolved in dimethyl sulfoxide (DMSO) at a concentration of 10 mg/mL. CHP was dissolved in 6 M urea-containing phosphate buffered saline (PBS) at a concentration of 10 mg/mL 1 mL (10 mg) of the long chain peptide solution and 20 mL (200 mg) of the CHP solution were mixed and left to stand at room temperature overnight in a dark place. The liquid mixture was transferred into a dialysis membrane (molecular weight cutoff: 3,500; Thermo Fisher Scientific, Inc.) and dialyzed for 2 hours to overnight at 4° C. against 0.6 M urea-containing PBS of a volume ratio of not less than 100 times as the dialysis outer solution. Dialysis was then performed for 2 hours to overnight at 4° C. against 0.06 M urea-containing PBS of a volume ratio of not less than 100 times as the dialysis outer solution. Dialysis was performed again for 2 hours to overnight at 4° C. against PBS of a volume ratio of not less than 100 times as the dialysis outer solution. The dialyzed inner solution was collected, filtered through a filtration sterilization filter of 0.45 μm or 0.22 μm pore size, and thereafter the UV absorption at 280 nm was measured to determine the final concentration of the long chain peptide from its molecular extinction coefficient.
Each CHP/long chain peptide complex as the vaccine and the CpG oligo DNA as the adjuvant were administered at the same time to a mouse. Administration was performed by subcutaneous injection on the back of the mouse. […]

[2] = tested on: CD11c+ cells (dendritic cells); test: In vitro uptake of FAM-labeled long chain peptide antigens by antigen-presenting cells (dendritic cells); format: cell-based; conditions: FIG. 8, complexed with CHP, 10 μg/mL, mouse spleen cells, 60 minutes, in comparison to G6 and P6
Description: Long chain peptide antigens MEN, all containing three types of mouse CD8+ T cell epitope sequences (MA p265 (Sequence No. 27), NY p81 (Sequence No. 29), and mERK2 9m (Sequence No. 28)), were synthesized. The interepitope sequences between the respective epitopes were respectively six consecutive tyrosines (Y6), six consecutive glycines (G6), or six consecutive prolines (P6) (Sequence Nos. 1-3). Each long chain peptide antigen, labeled with the fluorescent dye FAM, was complexed with CHP and administered in vitro to mouse dendritic cells and mouse macrophages. After 60 minutes, the fluorescence uptakes into the respective cells were measured by flow cytometry with the P5 fraction in the figure being deemed to correspond to the dendritic cells and the P6 fraction in the figure being deemed to correspond to the macrophages.
In vitro uptake of the long chain peptide antigens by antigen-presenting cells was measured as follows. Each long chain peptide labeled with a fluorescent dye was complexed with CHP by the method described above. Spleen cells separated from a normal mouse were added at 1×10^6 cells/0.5 mL/well to a 24-well plate. […] The uptake of the fluorescence-labeled long chain peptide antigens by CD11c^+ cells (dendritic cells) and F4/80^+ cells (macrophages) were observed using flow cytometry.

Sequence: SNPARYEFLYYYYYYQYIHSANVLYYYYYYRGPESRLL (Long chain peptide antigen, containing three types of mouse CD8+ T cell epitope sequences (MA p265, NY p81, and mERK2 9m)) [MEN(Y6)]
- induction of specific CD8+ T cells corresponding to all three types of epitopes ([1]; FIG. 1, MEN antigens complexed with CHP, subcutaneous, CpG oligo DNA adjuvant, spleen cells one week after final administration): clearly induced
- induction of specific CD8+ T cells corresponding to all three types of epitopes ([1]; FIG. 4, MEN, ENM, NME epitope orders, interepitope sequence fixed at Y6): clearly induced
- number of tyrosines of the interepitope sequence, judged in view of the results for the three types of epitopes ([1]; FIG. 6, comparing one to six tyrosines): best
- number of tyrosines of the interepitope sequence, judged in view of the results for the three types of epitopes ([1]; FIG. 7, comparing five to ten tyrosines): best
- fluorescence uptake into dendritic cells [2]: significantly higher
